Read-outs that look alike come from different tables or passages of the source.
Molecular target: T1, CRF receptor (Rattus norvegicus, UniProt P35353)
T1 construct: 100 μl of membrane suspension as prepared above to give a total reaction volume of 300 μl; from tissue; host or cells: rat cerebral cortex membrane homogenate
T1 sequence (P35353 24-415): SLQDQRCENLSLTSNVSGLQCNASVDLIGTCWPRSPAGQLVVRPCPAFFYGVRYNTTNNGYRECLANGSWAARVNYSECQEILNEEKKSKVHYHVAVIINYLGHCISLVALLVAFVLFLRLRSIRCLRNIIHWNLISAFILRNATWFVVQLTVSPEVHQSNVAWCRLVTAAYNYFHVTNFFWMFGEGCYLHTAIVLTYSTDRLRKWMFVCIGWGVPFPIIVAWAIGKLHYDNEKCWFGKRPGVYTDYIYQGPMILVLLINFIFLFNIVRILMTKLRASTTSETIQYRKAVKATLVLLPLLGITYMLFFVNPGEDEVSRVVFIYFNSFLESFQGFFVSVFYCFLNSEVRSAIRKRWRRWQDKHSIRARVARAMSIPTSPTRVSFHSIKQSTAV
Assay: In vitro CRF receptor binding assay (competition with [125I] ovine CRF, rat cortex membranes)
Details: read-out: Inhibition Ki
Method: In vitro Receptor Binding Assay
Tissue Preparation: Male Sprague Dawley rats (180-200 g) were sacrificed by decapitation and the cortex was dissected on ice, frozen whole in liquid nitrogen and stored at −70° C. until use. On the day of assay, frozen tissue was weighed and homogenized in 20 volumes of ice cold buffer containing 50 mM Tris, 10 mM MgCl2, 2 mM EGTA, pH 7.0 at 22° C. using a Polytron (Brinkmann Instruments, Westbury, N.Y.; setting 6) for 20 s. The homogenate was centrifuged at 48,000× g for 10 min at 4° C. The supernatant was discarded, and the pellet was re-homogenized in the same volume of buffer and centrifuged at 48,000× g for 10 min at 4° C. The resulting pellet was resuspended in the above buffer to a final concentration of 20-40 mg original wet weight/mL and used in the assays described below.
CRF Receptor Binding: Receptor binding assays were carried out essentially as described by E. B. De Souza, J. Neurosci. […]
All assays were carried out at equilibrium for 2 h at 22° C. as described by E. B. De Souza, J. Neurosci. […] The reaction was terminated by centrifugation of the tubes in a Beckman microfuge for 5 min at 12,000× g. Aliquots of the supernatant were collected to determine the “free” radioligand concentration. The remaining supernatant was aspirated and the pellets washed gently with ice-cold PBS plus 0.01% Triton X-100; centrifuged again and monitored for bound radioactivity as described above. […] This program has the distinct advantage of fitting the raw experimental data on an untransformed coordinate system where errors are most likely to be normally distributed and uncorrelated with the independent variable. […] The parameters for the affinity constants (KD) and receptor densities (Bmax) are also provided along with statistics on the general “fit” of the estimated parameters to the raw data.
Competition Curve Analysis
The resulting pellets were surface washed twice by centrifugation with 1 mL of ice-cold phosphate buffered saline and 0.01% Triton X-100; the supernatants discarded and the pellets monitored for radioactivity at approximately 80% efficiency. The level of non-specific binding was defined in the presence of […] unlabeled rat/humanCRF (r/hCRF). Data from competition curves were analyzed by the program LIGAND. […] Routinely, the data were analyzed using a one- and two-site model comparing the “goodness of fit” between the models in order to accurately determine the Ki. Statistical analyses provided by LIGAND allowed the determination of whether a single-site or multiple-site model should be used.
In Table 17; the Ki values were determined using the assay conditions described above.

[1] = competition with [125I] ovine CRF, 2 h at 22° C., Ki classes

| Ki [nM] | Ki [1] [nM] | Compound |
| --- | --- | --- |
| < 500 | – | CCN(c1nc(C)cc(C(=O)N2CCOCC2)n1)c1ccc(C(C)C)cc1Br [compound 58, N-(2-bromo-4-(1-methylethyl)phenyl)-N-ethyl-4-methyl-6-(4-morpholinylcarbonyl)-2-pyrimidinamine] |
| < 500 | – | C=CCOC1CCN(c2cc(C)nc(N(CC)c3ccc(C(C)C)cc3Br)n2)CC1 [compound 37] |
| 501 to 2000 | – | CCN(c1nc(C)nc(OCc2ccccc2)n1)c1ccc(C(C)C)cc1Br [compound 242, N-[2-bromo-4(1-methylethyl)phenyl]-N-ethyl-4-methyl-6-benzyloxy-1,3,5 triazin-2-amine] |
| < 500 | – | C#CCN(c1nc(C)cc(C)n1)c1ccc(C(C)C)cc1Br [compound 34, N-(2-Bromo-4-(1-methylethyl)phenyl)-N-propargyl4,6-dimethyl-2-pyrimidinamine] |
| 501 to 2000 | – | CCCCc1ccc(N(CC)c2nc(CC)cc(CC)n2)c(Br)c1 [compound 24] |
| < 500 | – | Cc1cc(-c2ccccc2)c2c(C#N)cn(-c3ccc(C(C)C)cc3Br)c2n1 [Example 256] |
| – | 2000 to 10000 | CCN(c1nc(C)cc(C)n1)c1ccc(C(C)=NOC)cc1S(C)(=O)=O [compound 179, N-(2-methylsulfonyl-4-methoxyiminoethylphenyl)-N-ethyl-4,6-dimethyl-2-pyrimidinamine] |
| < 500 | – | CCN(c1nc(C)cc(COCc2cc(OC)c(OC)c(OC)c2)n1)c1ccc(C(C)C)cc1Br [compound 212] |
| < 500 | – | CCN(c1nc(C)cc(C)n1)c1ccc(COC)cc1I [compound 172, N-(2-iodo-4-methoxymethylphenyl)-N-ethyl-4,6-dimethyl-2-pyrimidinamine] |
| 2000 to 10000 | – | CCN(c1nc(Cl)nc(Cl)n1)c1ccc(C(C)(C)O)cc1I [compound 249, N-[2-iodo-4-dimethylhydroxymethylphenyl]-N-ethyl-4-6-dichloro-1,3,5 triazin-2-amine] |
| 501 to 2000 | – | COc1ccc(N(C)c2nc(C)cc(C)n2)c(OC)c1 [compound 2] |
| < 500 | – | CCN(c1nc(C)cc(COCCO)n1)c1ccc(C(C)C)cc1Br [compound 225, N-(2-Bromo-4-(1-methylethyl)phenyl)-N-ethyl-4-hydroxyethoxymethyl-6-methyl-2-pyrimidinamine] |
| < 500 | – | CCN(c1nc(C)cc(COCc2cccnc2)n1)c1ccc(C(C)C)cc1Br [compound 216] |
| < 500 | – | CCOc1ccc(N(CC)c2nc(C)cc(C)n2)c(Br)c1 [compound 201] |
| < 500 | – | CCN(c1nc(C)cc(COc2ccc(OC)cc2)n1)c1ccc(C(C)C)cc1Br [compound 208] |
| < 500 | – | CCN(c1nc(C)cc(OCCN(C)C)n1)c1ccc(C(C)C)cc1Br [compound 161] |
| 501 to 2000 | – | CCSc1cc(C(C)C)ccc1N(CC)c1nc(C)cc(C)n1 [compound 175, N-(2-ethylthio-4-(1-methylethyl)phenyl)-N-ethyl-4,6dimethyl-2-pyrimidinamine] |
| < 500 | – | CCN(c1nc(C)cc(C(O)c2ccco2)n1)c1ccc(C(C)C)cc1Br (stereo not drawn) [compound 291] |
| < 500 | – | CCN(c1nc(C)cc(CN2CCN(c3ccccc3OC)CC2)n1)c1ccc(C(C)C)cc1Br [compound 275] |
| < 500 | – | CCN(c1nc(C)nc(N2CCOCC2)n1)c1ccc(C(C)C)cc1I [compound 136] |
| 501 to 2000 | – | CCN(c1nc(C)cc(OC[C@@H]2CCCN2C)n1)c1ccc(C(C)C)cc1SC [compound 177, N-(2-methylthio4-(1-methylethyl)phenyl)-N-ethyl-4(S)-(N-methyl-2′-pyrrolidinomethoxy)-6-methyl-2-pyrimidinamine] |
| < 500 | – | Cc1cc(C)nc(N(CC2CC2)c2ccc(C(C)C)cc2Br)n1 [compound 33] |
| < 500 | – | CCN(c1nc(C)cc(OCCCSC)n1)c1ccc(C(C)C)cc1Br [compound 150] |

| Ki [nM] | Ki [1] [nM] | Compound |
| --- | --- | --- |
| < 500 | – | CCN(c1nc(C)cc(S(C)(=O)=O)n1)c1ccc(C(C)C)cc1Br [compound 159, N-(2-bromo-4-(1-methylethyl)phenyl)-N-ethyl-4-methyl-6-(thiomethyl)-2-pyrimidinamine, dioxide] |
| < 500 | – | CCN(c1nc(C)cc(C)n1)c1ccc(C(C)C)cc1Br [compound 21, N-(2-bromo-4-(1-methylethyl)phenyl)-N-ethyl-4,6dimethyl-2-pyrimidinamine] |
| < 500 | – | CCN(c1nc(C)cc(N)n1)c1ccc(C(C)C)cc1Br [compound 155] |
| – | < 500 | CCN(c1nc(C)cc(CN2CCOCC2)n1)c1ccc(C(C)C)cc1Br [compound 59, N-(2-bromo-4-(1-methylethyl)phenyl)-N-ethyl-6-methyl-4-(4-morpholinylmethyl)-2-pyrmidinamine] |
| – | 2000 to 10000 | CCN(c1nc(C)cc(C)n1)c1ccc(C(C)C)cc1OC [compound 65, N-ethyl-N-(2-methoxy4-(1-methylethyl)phenyl)4,6-dimethyl-2-pyimidinamine] |
| < 500 | – | CCN(c1nc(C)cc([S+](C)[O-])n1)c1ccc(C(C)C)cc1Br (stereo not drawn) [compound 160, N-(2-bromo-4-(1-methylethyl)phenyl)-N-ethyl-4-methyl-6-(thiomethyl)-2-pyrimidinamine, S-oxide] |
| – | < 500 | N-ethyl-N-(2-bromo-4-(2-methoxyethyl)phenyl)4-morpholino-6-methyl-2-pyrimidinamine [compound 29] |
| 2000 to 10000 | – | Cc1cc(C)nc(N(C)c2ccccc2I)n1 [compound 53] |
| < 500 | – | CCN(c1nc(C)cc(C(=O)NC)n1)c1ccc(C(C)C)cc1Br [compound 271] |
| – | < 500 | CCN(c1nc(C)cc(C(=O)OC)n1)c1ccc(C(C)C)cc1Br [compound 61, Methyl 2-((2-bromo-4-(1-methylethyl)phenyl)ethylamino)-6-methyl-4-pyrimidinecarboxylate] |
| < 500 | – | Cc1cc(C)nc(N(C)c2ccc(C(C)C)cc2Br)n1 [compound 4, N-(2-bromo-4-(1-methylethyl)phenyl)-N-methyl-4,6-dimethyl-2-pymidinamine] |
| 501 to 2000 | – | CCN(c1nc(C)cc(NCCN(C)C)n1)c1ccc(C(C)C)cc1Br [compound 163] |
| < 500 | – | CCN(c1nc(C)cc(Cl)n1)c1ccc(C(C)C)cc1I [compound 167, N-(2-iodo4-(1-methylethyl)phenyl)-N-ethyl-4-chloro-6-methyl-2-pyrimidinamine] |
| 2000 to 10000 | – | CCN(c1nc(C)cc(COCC(=O)N2CCOCC2)n1)c1ccc(C(C)C)cc1Br [compound 229] |
| < 500 | – | CCN(c1nc(C)cc(C)n1)c1ccc(C(C)OC)cc1SC (stereo not drawn) [compound 189, N-(4-(1-methoxyethyl)-2-methylthiophenyl)-N-ethyl-4,6-dimethyl-2-pyrimidinamine] |
| < 500 | – | CCN(c1nc(C)cc(CN2CCN(c3cnccn3)CC2)n1)c1ccc(C(C)C)cc1Br [compound 278] |
| < 500 | – | CCN(c1nc(C)cc(C(C)O)n1)c1ccc(C(C)C)cc1Br (stereo not drawn) [compound 296] |
| < 500 | – | CCN(c1nc(C)cc(CN2CCN(c3ccccn3)CC2)n1)c1ccc(C(C)C)cc1Br [compound 280] |
| < 500 | – | CCN(c1nc(C)cc(C)n1)c1ccc(OC(C)C)cc1Br [compound 57, N-(2-Bromo-4-(isopropoxy)phenyl)-N-ethyl-4,6dimethyl-2-pymidinamine] |
| – | 2000 to 10000 | CCN(c1nc(C)cc(C(=O)N2CCN(C)CC2)n1)c1ccc(C(C)C)cc1Br [compound 63, N-(2-bromo-4-(1-methylethyl)phenyl)-N-ethyl-4-methyl-6-(4-methylpiperazinylcarbonyl)-2-pyrimidinamine] |
| < 500 | – | CCN(c1nc(C)cc(CN2CCN(c3ncccn3)CC2)n1)c1ccc(C(C)C)cc1Br [compound 281] |
| < 500 | – | CCc1ccc(N(C)c2nc(C)cc(C)n2)c(Br)c1 [compound 9, N-(2-bromo-4-ethylphenyl)-N-methyl-4,6-dimethyl-2-pypimidinamine] |
